# Test system: mucosa of the stomach
# Assay: Anti-ulcer test by oral administration (hydrochloric acid/ethanol-induced stomach mucosa damage)
# Assay type: in vivo, male rats of the Wistar strain
# Conditions: 3 mg/kg orally in 0.5% CMC, 30 minutes before 150 M hydrochloric acid/60% ethanol; male Wistar rats, 8 per group; 1 hour after hydrochloric acid/ethanol
# Description: To male rats of the Wistar strain (each group consisting of 8 rats) having a body weight of 160 to 180 g, which had been fasted for 24 hours, was orally administered 3 mg/kg of the compound of formula I in the form of a suspension in a 0.5% solution of carboxymethyl cellulose (CMC), and after 30 minutes, 1 ml/200 of […] hydrochloric acid/60% ethanol was orally administered to the rats. One hour after the administration of the hydrochloric acid/ethanol, the rats were subjected to laparotomy, and the length of the damaged part formed on the mucosa of the stomach was compared, as the mucosa damage coefficient, with that in the control group. Only the 0.5% solution of CMC not containing the compound of formula I was orally administered to the control group. The inhibition ratio was calculated according to the following formula: [formula] wherein A represents the value of the control group and B represents the value of the group to which the compound of formula I was administered.
row,Compound,Inhibition Ratio (mucosa damage coefficient)
1,"CCOC(=O)c1ccc(CSc2nnc(-c3cccnc3)s2)nc1 [Example 1, 2-[(5-Ethoxycarbonylpyridin-2-yl)methylthio]-5-(3-pyridyl)-1,3,4-thiadiazole]",42.9%
2,"CCOC(=O)c1ccc(C[S+]([O-])c2nnc(-c3cccnc3)s2)nc1 (centres unmarked) [Example 2, 2-[(5-Ethoxycarbonylpyridin-2-yl)methylsulfinyl]-5-(3-pyridyl)-1,3,4-thiadiazole]",91.5%

# Reference: patent publication US5106859A, “Certain 1,3,4-thiadiazole derivatives and anti-ulcer agent comprising said derivatives as active ingredient” (Tsumura & Co., priority 1988, dated 1992)
